Results on three compounds are retold here after US20220409595A1, “GLUCOSYLCERAMIDE SYNTHASE INHIBITORS” (GENZYME CORPORATION, priority 2013, published 2022).

Assay [1] has as its system Fabry iPSC-derived cardiomyocytes. As to the kind of experiment: GL-3 content of Fabry iPSC-derived cardiomyocytes (beating EBs) by mass spectrometry. The assay is classed as cell-based, human. How it is done:
GCS452 [(S)-quinuclidin-3-yl (2-(2-(4-fluorophenyl)thiazol-4-yl)propan-2-yl) carbamate], a selective glucosylceramide synthase inhibitor, was tested to evaluate its potential to prevent GL-3 accumulation in Fabry iPSC-derived cardiomyocytes. EBs were treated eighteen days after induction of cardiac differentiation. At this time point, accumulation was low in the FD cardiomyocytes (FIG. 4). The FD and WT cardiomyocytes were treated with 1 μM GCS452 for 15 days.
It was next determined whether the compound could reduce levels of accumulated GL-3 when significant GL-3 accumulation is present at the start of treatment (FIG. 4). […]
In parallel, it was investigated whether agalsidase beta could clear accumulated GL-3 in one month old Fabry cardiomyocytes. EBs were treated with 0.3p g/mL of agalsidase beta for 5 days and GL-3 content was analyzed as described for GCS452. GL-3 vacuoles were not detected in treated Fabry cardiomyocytes using ICC (FIG. 5C). […]
Pellets containing EBs were extracted in a solution of acetonitrile:methanol (1:1). The extracts were directly injected onto a 2.1×100 mm, 1.7 μM BEH Hilic column (Waters), resolved with a Waters Acquity UPLC system, and analyzed for C16, C18, C20, C22, C23, C24, C24:1, C24(OH), and C24:1(OH) GL-3 isoforms and lyso-GL-3 in multiple-reaction monitoring (MRM) and positive-ion mode with an API-4000 mass spectrometer (ABSciex, Framingham, Mass.). […]

For assay [2] the test system is unchanged. As to the kind of experiment: Immunocytochemistry of GL-3 and Lamp2 in Fabry iPSC-derived cardiomyocytes. It counts as cell-based, human. As to the method: It was next determined whether the compound could reduce levels of accumulated GL-3 when significant GL-3 accumulation is present at the start of treatment (FIG. 4). Twenty eight post-start of differentiation, beating EBs were treated with 1 μM of GCS452 for 15 days. The EBs were dissociated and plated at the end of the treatment, and ICC analysis was performed. […] GL-3 reduction in treated Fabry EBs was confirmed by mass spectrometry. While there was a 13 to 18 fold increase of GL-3 in untreated FD cardiomyocytes compared to WT, GL-3 levels increased by 4.5 to 5.5 fold in treated FD cardiomyocytes after 15 days of treatment with GCS452. This corresponds to a 2.3 to 2.8 fold reduction in accumulated GL-3 as compared to GL-3 levels at the start point (TO) of treatment (FIG. 5B). In parallel, it was investigated whether agalsidase beta could clear accumulated GL-3 in one month old Fabry cardiomyocytes. EBs were treated with 0.3p g/mL of agalsidase beta for 5 days and GL-3 content was analyzed as described for GCS452. GL-3 vacuoles were not detected in treated Fabry cardiomyocytes using ICC (FIG. 5C). […] One month old beating EBs were harvested and dissociated by using the embryoid body dissociation kit (Miltenyi Biotech, Bergisch Gladbach). Dissociated cells were plated on matrigel coated dishes. Five days latter, cells were fixed using 8% de formaldehyde solution (Sigma-Aldrich, St. Louis, Mo.) in DPBS (Gibco, Carlsbad, Calif.) and permeabilized in 0.05% Tween 20 (Sigma Life Science, St. Louis, Mo.) 20 minutes at room temperature. The samples were incubated with the primary antibodies over night at 4° C. Secondary antibodies were applied one hour at room temperature. Primary antibodies used were mouse monoclonal IgG1 directed against—Actinin, at the final dilution 1/1500 (Sigma Life Science, St. Louis, Mo.), rat monoclonal IgM directed against GL-3/CD77, at the final dilution 1/300 (Abcam, Cambridge, US) and mouse monoclonal IgG1 directed against LAMP2, at the final dilution 1/500 (Santa Cruz Biotechnology, Dallas, Tex.). The secondary antibodies were Alexa Fluor 488 goat anti-mouse IgG (Molecular Probes, Carlsbad, Calif.) Alexa Fluor 555 goat anti-mouse IgG (Molecular Probes, Carlsbad, Calif.) and Alexa Fluor 488 goat anti-rat IgG (Molecular Probes, Carlsbad, Calif.). They were used at the final dilution 1/1000.

Assay [3] relates to K14 mouse model of type 2 Gaucher disease. As to conditions: cited from earlier work.
Assay [4] deals with Fabry patients. As to conditions: cited from earlier work.
The mark [5] stands for this setting: 1 μM for 15 days, treatment from day 28.
Where [6] appears, read: 0.3p g/mL for 5 days, one month old Fabry cardiomyocytes.
Where [7] appears, read: 3 μg/mL, one month old Fabry iPSC-derived cardiomyocytes, end of treatment.

“Also recorded” adds a separate entry of the source. Like-named read-outs stand apart in the source and are kept apart here.

On to `CC(C)(NC(=O)O[C@@H]1CN2CCC1CC2)c1csc(-c2ccc(F)cc2)n1` [GCS452, (S)-quinuclidin-3-yl (2-(2-(4-fluorophenyl)thiazol-4-yl)propan-2-yl) carbamate], for which the “GL-3 levels / accumulation in treated FD cardiomyocytes (prevention)” value in assay [1] (1 μM for 15 days, treatment from day 18 after induction of cardiac differentiation) is recorded as “close to the physiological levels of WT untreated cells”. In addition, in assay [2] (setting [5]), the “GL-3 labeling (ICC)” value is listed as “not or was very slightly detectable; also recorded: significant reduction” and the “Lamp2 signal intensity / number of Lamp2 vacuoles (ICC)” value is “reduced; also recorded: concomitant decrease”.

Regarding `CC(C)(NC(=O)OC1CN2CCC1CC2)c1cccc(-c2ccc(F)cc2)c1` (centres unmarked) [Gz161, Quinuclidin-3-yl (2-(4′-fluoro-[1,1′-biphenyl]-3-yl)propan-2-yl)carbamate], in assay [3], the brain neuropathology result was “reduced” and the lifespan entry is on record as “extended”. Besides, the “brain GluCer and GluSph” value in assay [3] (see Examples 122-125 of WO2012/129084) is listed as “reduce”.

On to “agalsidase beta: recombinant α-GalA, enzyme replacement therapy approved for the treatment of Fabry disease”, for which, in assay [1] (setting [6]), the “GL-3 clearance in Fabry cardiomyocytes” value is “Complete clearance; also recorded: clearance of GL-3”. In assay [2] (setting [7]), the “GL-3 content (ICC), FIG. 5C legend” value was “not or was very slightly detectable”; the “number of Lamp2 vacuoles and intensity of the signal (ICC), FIG. 5C legend” value is listed as “reduced”. In addition, the “GL-3 vacuoles (ICC)” value in assay [2] (setting [6]) is listed as “not detected”. Besides, the “GL-3 deposits / accumulation in cardiomyocytes” value in assay [4] (Fabry patients, cardiac biopsies, after 5 and 12 months of treatment) is listed as “not reduced; also recorded: no effect”. Besides, in assay [4] (Fabry patients), the “GL-3 deposits in capillary endothelium / heart microvasculature” value is reported as “effectively clears”. For the same compound, the “GL-3 deposits in capillary endothelium / heart microvasculature” value in assay [4] (Fabry patients, listed as Agalsidase beta) is “consistently clear”. Besides, the left ventricular mass result in assay [4] (treated Fabry patients) is “Modest reductions”.
